Assay results from US8598339B2, “Withanolide isolated from Physalis longifolia and analogs and methods of use thereof” (University of Kansas, priority 2011, dated 2013).

Experiments:
[1] = test system: heat shock factor (HSF) / HSE-luciferase in Hs766T cells; experiment: HSE-luciferase reporter, Hs766T; type: cell-based; design: dose or concentration left out as unconfirmed; settings: heat shock 42° C. 30 minutes; recovery 8 hours
Experimental: To monitor the activation of heat shock factor (HSF) and heat shock-mediated signal transduction pathways, Hs766T cells were transfected with a HSE-luciferase construct, then treated with 3 mM of the selected withanolides for 8 hours. The cells were heat shocked at 42° C. for 30 minutes and allowed to recover at 37° C. for 8 hours. Cells were lysed and luciferase activity was measured on a plate reader.

[2] = test system: ER+ MCF-7 cells; experiment: Cell cycle analysis, MCF-7; type: cell-based; settings: 1-2 μM; 24-hour treatment
[3] = In vitro metabolism, human liver microsomes; type: in vitro ADME; settings: 1.0E-06 M
Experimental: (§1) The in vitro metabolism of […], as compared to known reference compounds, was analyzed using liver microsomes from human, dog (Beagle), rat (Sprague-Dawley) and mouse (CD-1). […] Results are from two independent tests.

[4] = test system: MCF-7 cells; experiment: Annexin V-FITC/Propidium Iodide apoptosis, MCF-7; type: cell-based; settings: 1-4 μM, 24 and 48 hours
From the text: Therefore, this cell line was not very sensitive to X001 in this assay.

[5] = test system: TT medullary thyroid cancer cells; experiment: MTS cell viability assay, TT; type: cell-based; settings: Table 1, 72-hour treatment
Experimental: Human carcinoid cells, NCI-H727 (ATCC, Manassas, Va.), were cultured under standard conditions. Squamous cell carcinoma of head and neck cells, MDA1986 (Myers, et al. (2002) Clin. Cancer Res. 8:293) and JMAR (Swan, et al. (2003) Oral Oncol. 39:648-55); and melanoma cells lines B16F10 (ATCC, Manassas, Va.) and SKMEL28 (CLS, Eppelheim, Germany) were cultured in DMEM medium supplemented with 10% heat-inactivated fetal bovine serum (Sigma-Aldrich, St. Louis, Mo.), 1×MEM-essential amino acid, 1×MEM vitamin, and penicillin/streptomycin (Sigma-Aldrich, St. Louis, Mo.) in a humid environment of 5% CO2 at 37° C. Activity of withanolides against DRO81-1 and TT medullary thyroid cancer cells was also determined.
Cells were cultured in 96 well plates at a concentration of 1-2×10^4 cells/mL. Cell viability was assessed with the nonradioactive cell proliferation MTS assay using Cell Titer 96AQUEOUS One Solution Reagent (PROMEGA, Madison, Wis.), according to the manufacturer's instruction. After a 72-hour treatment, 20 μL of Cell Titer 96AQUEOUS One Solution Reagent were added to each well and incubated for 3 hours at 37° C. 5% CO2, and formazan absorbance was measured at 490 nm.

[6] = test system: Salmonella typhimurium TA100; experiment: Cytotoxicity in tester strain TA100 without S9; type: cell-based
[7] = In vitro metabolism, dog liver microsomes; type: in vitro ADME, dog (Beagle); settings: 1.0E-06 M
Experimental: as §1

| SMILES | heat shock-induced increase in luciferase activity [1] | cell cycle effect [2] | Mean % Parent Compound Remaining [3] | induction of apoptosis [4] | IC50 [5] | Cytotoxicity (% of Control) ([6]; 1.0E−04 M) | Cytotoxicity (% of Control) ([6]; 1.0E−05 M) | Cytotoxicity (% of Control) ([6]; 1.3E−06 M) | Cytotoxicity (% of Control) ([6]; 2.5E−05 M) | Cytotoxicity (% of Control) ([6]; 2.5E−06 M) | Cytotoxicity (% of Control) ([6]; 5.0E−05 M) | Cytotoxicity (% of Control) ([6]; 5.0E−06 M) | Cytotoxicity (% of Control) ([6]; 6.3E−07 M) | Mean % Parent Compound Remaining [7] |
| --- | --- | --- | --- | --- | --- | --- | --- | --- | --- | --- | --- | --- | --- | --- |
| CC(=O)OCC1=C(C)C[C@H]([C@@H](C)C2CC[C@H]3[C@@H]4C[C@H]5O[C@]56[C@@H](OC(C)=O)C=CC(=O)[C@]6(COC(C)=O)[C@H]4CC[C@]23C)OC1=O (some centres unmarked) [Compound X003, 4,19,27-triacetyl X001] | substantially reduced | – | – | – | – | – | – | – | – | – | – | – | – | – |
| CC1=C(CO)C(=O)O[C@@H]([C@@H](C)C2CC[C@H]3[C@@H]4C[C@H]5O[C@]56[C@@H](O)C=CC(=O)[C@]6(CO)[C@H]4CC[C@]23C)C1 (some centres unmarked) [Compound X001] | – | G2/M cell cycle arrest | 27% | did not induce apoptosis | 1.91 µM | 107 % of Control | 101 % of Control | 96 % of Control | 93 % of Control | 101 % of Control | 101 % of Control | 103 % of Control | 99 % of Control | 28% |
